The values below come from patent US8653071B2, “α4β2 neuronal nicotinic acetylcholine receptor ligands” (Suven Life Sciences Limited, priority 2009, dated 2014).

The structures appear in SMILES notation.

As usually defined, the Ki is the equilibrium dissociation constant of an inhibitor or competing ligand from its target. What is called bioavailability is the share of a dose that reaches the circulation, judged against a reference dose that is usually intravenous. Read a high bioavailability as much systemic uptake. Broadly, the AUC(0-t) is exposure summed from dosing to a finite time, without extrapolation to infinity. The term Cmax denotes the maximum level reached in the sampled fluid or tissue. As a reminder, the Tmax is the time at which the peak concentration occurs. As usually defined, the half-life is how long it takes for the measured level to halve.

One data set is described as follows: in vivo. Conditions: male, Wistar, rat, po, 5 mg/kg.
Data set [1] addresses Nicotinic Acetylcholine α4β2 Receptor (UniProt P09483+P12390). Kind of data set: Binding assay for human or rat nicotinic acetylcholine α4β2 receptor ([3H]Cytisine displacement). Conditions: [3H]Cytisine 2.5 nM; rat brain frontal cortex or recombinant human receptor in CHO cells (not specified which); read-out: Ki. The protocol:
Binding Assay for Human or Rat Nicotinic Acetylcholine α4β2 Receptor
• Receptor source: Rat brain frontal cortex or recombinant human cDNA expressed in CHO cells • Radioligand: [^3H]Cytisine 15-40 Ci/mmole • Final ligand concentration—[2.5 nM] • Non-specific determinant: Epibatidine—[0.1 μM] • Reference compound: Epibatidine • Positive control: Epibatidine Incubation Conditions:
Increasing concentrations of test compounds or standard were incubated with membrane receptors and radioligand in 120 mM NaCl, 2.5 mM KCl, 1 mM CaCl2, 1 mM MgCl2 and 50 mM TRIS-HCl (pH 7.4) for 60 minutes at room temperature. The reaction was terminated by rapid vacuum filtration onto the glass fiber filters. Radioactivity trapped onto the filters was determined and compared to the control values in order to ascertain any interactions of the test compound(s) with either cloned human or rat receptor binding site.
Literature Reference: Bunnelle W. H., Daanen J. F., Ryther K. B., Schrimpf M. R., Dart M. J., Gelain A., Meyer M. D., Frost J. M., Anderson D. J., Buckley M., Curzon P., Cao Y-J., Puttfarcken P., Searle X., Ji J., Putman C. B., Surowy C., Toma L. and Barlocco D. Structure-Activity Studies and Analgesic Efficacy of N-(3-Pyridinyl)-Bridged Bicyclic Diamines, Exceptionally Potent Agonists at Nicotinic Acetylcholine Receptors. J. Med. Chem. 2007, 50, […].

In data set [2] the test system is Male Wister rats. Kind of data set: Reversal of formalin induced nociception. Format: in vivo. As to conditions: p.o.; rat. The protocol:
Reversal of Formalin Induced Nociception
The anti-nociceptive properties of compounds of this invention were evaluated using a model of pain: the Formalin Induced Nociception model. Male Wister rats (230-280 grams) obtained from N. I. N. (National Institute of Nutrition, Hyderabad, India) was used as experimental animals.
Rats were habituated for 20 minutes in the arena before the experiment was started. Duration of licks, bites and flinches were noted from 0-10 minutes and 20-35 minutes after administration of formalin, subplantar into the right hind paw at concentrations of 5% v/v. 50 μL of water for injection was injected into the right hind paw of the rats of the sham group. Compounds of this invention were administered orally prior to formalin administration.

Data set [3] is described as follows: Rodent pharmacokinetic study. Format: in vivo. Conditions: Wistar, in vivo, Wister rat/Male; for AUC(0-t) / Cmax / Tmax / half-life: 5 mg/kg. The protocol: Rodent Pharmacokinetic Study
Three to five animals were housed in each cage. Animals were kept fasted over night and maintained on a 12 hours light/dark cycle. Three rats were dosed NCE orally (15 or 5 mg/kg) and intravenously (5 mg/kg) on day 0 and day 2
At each time point blood was collected by jugular vein. Plasma was stored frozen at −20° C. until analysis. The concentrations of the NCE compound in plasma were determined using LC-MS/MS method. Schedule time points: Pre dose 0.25, 0.5, 1, 1.5, 2, 3, 4, 6, 8, 10, 12 and 24 hours after dosing (n=3).
Pharmacokinetic parameters Cmax, Tmax, AUCt, T1/2 and Bioavailability were calculated by non-compartmental model using software WinNonlin version 5.0.1.

The subject of data set [4] is Male Wister rats. Kind of data set: Object recognition task model. The data set is classed as in vivo, rat. Conditions: 0.1 mg/kg, p.o. The protocol: Object Recognition Task Model
The cognition-enhancing properties of compounds of this invention were estimated using a model of animal cognition: the object recognition task model.
Male Wister rats (230-280 grams) obtained from N. I. N. (National Institute of Nutrition, Hyderabad, India) was used as experimental animals. Four animals were housed in each cage. […] Also the rats were habituated to individual arenas for 1 hour in the absence of any objects.
One group of 12 rats received vehicle (1 mL/Kg) orally and another set of animals received compound of the formula (I) either orally or i.p., before one hour of the familiar (T1) and choice trial (T2).
The experiment was carried out in a 50×50×50 cm open field made up of acrylic. In the familiarization phase, (T1), the rats were placed individually in the open field for 3 minutes, in which two identical objects (plastic bottles, 12.5 cm height×5.5 cm diameter) covered in yellow masking tape alone (a1 and a2) were positioned in two adjacent corners, 10 cm. from the walls. After 24 hours of the (T1) trial for long-term memory test, the same rats were placed in the same arena as they were placed in T1 trial. Choice phase (T2) rats were allowed to explore the open field for 3 minutes in presence of one familiar object (a3) and one novel object (b) (Amber color glass bottle, 12 cm high and 5 cm in diameter). Familiar objects presented similar textures, colors and sizes. During the T1 and T2 trial, explorations of each object (defined as sniffing, licking, chewing or having moving vibrissae whilst directing the nose towards the object at a distance of less than 1 cm) were recorded separately by stopwatch. Sitting on an object was not regarded as exploratory activity, however, it was rarely observed.
T1 is the total time spent exploring the familiar objects (a1+a2).
T2 is the total time spent exploring the familiar object and novel object (a3+b).
The object recognition test was performed as described by Ennaceur, A., Delacour, J., 1988, A new one-trial test for neurobiological studies of memory in rats—Behavioural data, Behav. Brain Res., 31, 47-59.

The subject of the next data set is Male Sprague Dawley rats. In words: DRL-72s model of animal depression. Format: in vivo. Conditions: p.o.; rat. The protocol: The antidepressant properties of compounds of this invention were evaluated using a model of animal depression: the DRL-72s model. Male Sprague Dawley rats were used as experimental animals. Rats are trained to lever press for a 4″ access to 0.025 ml of water for each correct response during daily 60 minute sessions. All testing takes place on weekdays only. At the beginning of each session, the house light is illuminated and remains lit until the session ends. No other stimuli are presented during testing. After successful lever press training, rats are then required to respond under a DRL-24 second schedule, where only lever presses that are separated by 24 seconds are reinforced. Upon stable responding on a DRL-24 second schedule (5-10 sessions), rats are trained on a DRL-72 second schedule until responding stabilizes at approximately 15% efficiency (approx 25-35 sessions). Specifically, rats receive a reinforcer for each response that is emitted at least 72 seconds after the previous response (IRT). […] Efficiency is recorded as number of reinforced responses÷total number of responses. After stable baseline responding is achieved, defined as responding for 4 consecutive sessions with no more than 10% variability, animals begin drug testing. Animals receive drug no more than 1× per week.

Method for in vivo: Rodent Brain Penetration Study
Three animals were housed in each cage. Animals were given water and food ad libitum throughout the experiment, and maintained on a 12 hours light/dark cycle.
NCE compound was dissolved in water and administered orally. At Tmax (0.5, 1.0 and 2.0) animals were sacrificed to collect the plasma and brain tissue and were homogenized. Plasma and Brain was stored frozen at −20° C. until analysis. The concentrations of the NCE compound in plasma and Brain were determined using LC-MS/MS method.
The NCE compounds were quantified in plasma and brain homogenate by validated LC-MS/MS method using solid phase extraction technique. NCE compounds were quantified in the calibration range of 1-500 ng/mL in plasma and brain homogenate. Study samples were analyzed using calibration samples in the batch and quality control samples spread across the batch. Extents of brain-blood ratio were calculated (Cb/Cp).

In “in vivo”, `NCC1CC2CC2N1c1cncc(Cl)c1.O=C(O)/C=C/C(=O)O` (stereo not shown) [Example 13, [2-(5-Chloropyridin-3-yl)-2-aza-bicyclo[3.1.0]hex-3-yl]methylamine fumarate] gave a Kp of 10.8 ± 1.29. In data set [1], the Ki turned out to be 3.5 nM. For the same compound, the “Dose (reversal of formalin induced nociception)” value in the data set on Male Wister rats [2] is reported as “≧30 mg/kg, p.o”. The compound further yielded a bioavailability in data set [3] (5 mg/kg Per-Oral vs 5 mg/kg Intravenous) of 89 ± 18%. For the same compound, in data set [3] (Intravenous), the exposure AUC(0-t) was found to be 1760 ± 228 ng·h/mL, the Cmax was 836 ± 239 ng/mL, the time to peak (Tmax) came to 4.8 min and the half-life is 85.8 ± 6.6 min. In data set [3] (Per-Oral), the AUC(0-t) worked out at 1540 ± 165 ng·h/mL, the Cmax was 753 ± 277 ng/mL, the time to peak (Tmax) came out at 22.8 ± 8.4 min and the half-life was 105 ± 24 min. Moreover, the Inference result in the data set on Male Wister rats [4] is given as “Active”. In the data set with Male Wister rats [4] (choice trial), the “Exploration time mean ± S.E.M, Familiar object” value is 7.32 ± 1.04 s and the “Exploration time mean ± S.E.M, Novel object” value amounted to 22.77 ± 2.12 s. In addition, the “Dose (DRL-72s)” value with Male Sprague Dawley rats is recorded as “≧10 mg/kg, p.o”.
